# According to US20090163490A1, “Pyrrolopyrimidine Derivatives Used As HSP90 Inhibitors” (VERNALIS (R&D) LTD., priority 2006, published 2009):
# Where two headings read alike, the source gives them in different places.
# Experiments:
# human full-length HSP90 = target: T1, human full-length HSP90 (Homo sapiens, UniProt P08238); assay: Fluorescence polarization (FP) binding assay; settings: competitive displacement of fluorescein-labelled probe from human full-length HSP90, activity range
# T1 construct: E. coli expressed human full-length HSP90 protein, purified >95%; made in house; host or cells: E. coli
# T1 sequence (P08238 whole entry): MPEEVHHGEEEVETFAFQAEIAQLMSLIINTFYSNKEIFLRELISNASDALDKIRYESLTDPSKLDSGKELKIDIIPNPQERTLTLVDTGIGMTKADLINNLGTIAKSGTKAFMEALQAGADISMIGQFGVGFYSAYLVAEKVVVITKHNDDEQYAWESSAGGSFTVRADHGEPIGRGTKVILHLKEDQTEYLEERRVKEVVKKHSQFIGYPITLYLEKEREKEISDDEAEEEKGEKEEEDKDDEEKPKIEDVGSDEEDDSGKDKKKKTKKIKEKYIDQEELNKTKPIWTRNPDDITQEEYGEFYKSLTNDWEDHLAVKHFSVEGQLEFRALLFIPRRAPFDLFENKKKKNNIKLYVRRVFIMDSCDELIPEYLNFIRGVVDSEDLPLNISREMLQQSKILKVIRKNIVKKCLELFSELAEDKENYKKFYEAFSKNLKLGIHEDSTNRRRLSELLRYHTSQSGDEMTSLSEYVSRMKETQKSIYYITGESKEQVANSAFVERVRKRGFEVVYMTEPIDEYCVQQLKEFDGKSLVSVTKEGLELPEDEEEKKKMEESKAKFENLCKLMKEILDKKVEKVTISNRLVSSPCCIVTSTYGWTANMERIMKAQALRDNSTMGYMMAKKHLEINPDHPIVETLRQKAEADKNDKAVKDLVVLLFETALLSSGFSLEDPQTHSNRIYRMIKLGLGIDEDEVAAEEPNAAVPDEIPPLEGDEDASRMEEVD
# Text: Fluorescence Polarization Assay
# Fluorescence polarization {also known as fluorescence anisotropy} measures the rotation of a fluorescing species in solution, where the larger molecule the more polarized the fluorescence emission. When the fluorophore is excited with polarized light, the emitted light is also polarized. The molecular size is proportional to the polarization of the fluorescence emission.
# The fluoroscein-labelled probe—
# binds to HSP90 {full-length human, full-length yeast or N-terminal domain HSP90} and the anisotropy {rotation of the probe:protein complex} is measured.
# Test compound is added to the assay plate, left to equilibrate and the anisotropy measured again. Any change in anisotropy is due to competitive binding of compound to HSP90, thereby releasing probe.
# Stored at room temperature. • 3) BSA (bovine serum albumen) 10 mg/ml (New England Biolabs # B9001S) • 4) 20 mM probe in 100% DMSO stock concentration. Stored in the dark at RT. Working concentration is 200 nM diluted in AR water and stored at 4° C.
# • 1) Add 100 μl×buffer to wells 1A and 12A(=FP BLNK) • 2) Prepare assay mix—all reagents are kept on ice with a lid on the bucket as the probe is light-sensitive.
# • 3) Aliquot 100 μl assay mix to all other wells • 4) Seal plate and leave in dark at room temp for 20 minutes to equilibrate
# This gives 2.5 mM {50×} stock cpd−assuming cpds 20 mM. • 4) Repeat for wells A2 to A10. Control in columns 11 and 12. • 5) Transfer 5 μl from row A to row B—not column 12. Mix well. • 6) Transfer 5 μl from row B to row C. […] Add 2 μl of 100 mM standard cpd to wells B12-H12 {is positive control} • 13) The Z′ factor is calculated from zero controls and positive wells.
# BT474 cells = assay: Sulforhodamine B (SRB) growth inhibition assay; format: cell-based; settings: Homo sapiens, BT-474, activity range
# Method: A growth inhibition assay was also employed for the evaluation of test compounds:
# Assessment of Cytotoxicity by Sulforhodamine B (SRB) Assay: Calculation of 50% Inhibitory Concentration (IC50).
# • 1) Determine cell number by haemocytometer. • 2) Using an 8 channel multipipettor, add 160 μl of the cell suspension (3600 cells/well or 2×10^4 cells/ml) to each well of a 96-well microtitre plate. • 3) Incubate overnight at 37° C. in a CO2 incubator.
# • 4) Stock solutions of drugs are prepared, and serial dilutions of each drug are performed in medium to give final concentrations in wells. • 5) Using a multipipettor, 40 μl of drug (at 5× final concentration) is added to quadruplicate wells. • 6) Control wells are at either side of the 96 well plates, where 40 μl of medium is added. • 7) Incubate plates in CO2 incubator for […].
# • 8) Tip off medium into sink and immerse plate slowly into 10% ice cold trichloroacetic acid (TCA). Leave for about 30 mins on ice. • 9) Wash plates three times in tap water by immersing the plates into baths of tap water and tipping it off. • 10) Dry in incubator. • 11) Add 100 μl of 0.4% SRB in 1% acetic acid to each well (except the last row (right hand) of the 96 well plate, this is the 0% control, ie no drug, no stain. The first row will be the 100% control with no drug, but with stain). Leave for 15 mins. • 12) Wash off unbound SRB stain with four washes of 1% acetic acid. • 13) Dry plates in incubator. • 14) Solubilised SRB using […] of 10 mM Tris base and put plates on plate shaker for 5 mins. • 15) Determine absorbance at 540 nm using a plate reader. Calculate mean absorbance for quadruplicate wells and express as a percentage of value for control, untreated wells. • 16) Plot % absorbance values versus log drug concentration and determine the GI50., ie the concentration of test compound required to inhibit growth of the cells by 50%.
# The compounds tested in the above assay were assigned to one of three activity ranges, namely A=<0.5 μM; B=0.5 μM to 10 μM; C=>10 μM, and the results for six of the compounds of the invention are reported in Table 2.
# [1] = read-out: ACTIVITY* (Activity in the FP binding assay)
# [2] = read-out: activity in the fluorescence polarization assay
Structure (SMILES),IC50 (human full-length HSP90; [1]) [nM],GI50 (BT474 cells) [nM],IC50 (human full-length HSP90; [2]) [nM]
"CCN(CC)CCSc1nc(-c2ccc(F)cc2C)c2c(C#N)c[nH]c2n1 [Example 19, 2-(2-Diethylamino-ethylsulfanyl)-4-(4-fluoro-2-methyl-phenyl)-7H-pyrrolo[2,3-d]pyrimidine-5-carbonitrile]",–,500 to 10000,< 500
CC(C)Sc1nc(-c2cc(OCc3ccccc3)c(Cl)cc2Cl)c2c(C#N)c[nH]c2n1 [Example 51],500 to 10000,500 to 10000,–
"CCN(CC)CCOc1nc(-c2cc(OC)c(Cl)cc2Cl)c2c(C#N)c[nH]c2n1 [Example 24, 4-(2,4-Dichloro-5-methoxy-phenyl)-2-(2-diethylamino-ethoxy)-7H-pyrrolo[2,3-d]pyrimidine-5-carbonitrile]",–,500 to 10000,< 500

# Further lines, results first:
IC50 (human full-length HSP90; [1]) [nM],GI50 (BT474 cells) [nM],IC50 (human full-length HSP90; [2]) [nM],Structure (SMILES)
< 500,< 500,–,COc1cc(Cl)c(-c2nc(SC)nc3[nH]cc(C#N)c23)cc1OCCN1CC[C@@H](F)C1 [Example 72]
–,< 500,< 500,"CCN(CC)CCOc1cc(-c2nc(SCC(=O)NC)nc3[nH]cc(C#N)c23)c(Cl)cc1Cl [Example 28, 2-{5-Cyano-4-[2,4-dichloro-5-(2-diethylamino-ethoxy)-phenyl]-7H-pyrrolo[2,3-d]pyrimidin-2-ylsulfanyl}-N-methyl-acetamide]"
–,< 500,< 500,"COc1cc(Cl)c(-c2nc(OCCN3CCC(F)(F)CC3)nc3[nH]cc(C#N)c23)cc1OC [Example 31, 4-(2-Chloro-4,5-dimethoxy-phenyl)-2-[2-(4,4-difluoro-piperidin-1-yl)-ethoxy]-7H-pyrrolo[2,3-d]pyrimidine-5-carbonitrile]"
